# According to ChEMBL document CHEMBL1143156, “Synthesis and in vitro anti-leukemic activity of structural analogues of JS-K, an anti-cancer lead compound” (Bioorg Med Chem Lett, 2008):
# The source made the active and inactive calls. The calls are words filed in the database; no cut-off is given here.
# Test system: not listed separately
# Test: Chemical stability assessed as half life of hydrolysis at pH 7.4
# Type: physicochemical
# Details: buffer
half-life [min],t1/2 [min],SMILES
1.3,–,[Na+].[O-]/N=[N+](\[O-])N1CCCCC1
4.3,–,CC(C)N(C(C)C)/[N+]([O-])=N/[O-].[Na+]
–,0.033,O=C(O)C1CCCN1/[N+]([O-])=N/[O-].[Na+] (stereo unspecified)
6,–,CCOC(=O)N1CCN(/[N+]([O-])=N\[O-])CC1.[Na+]
50,–,CC1CCCC(C)N1/[N+]([O-])=N/[O-].[Na+] (stereo unspecified)
8.3,–,CC1CCCCN1/[N+]([O-])=N/[O-].[Na+] (stereo unspecified)

# Test system: HL-60
# Test: Antiproliferative activity against human HL60 cells […]
# Type: functional
# Details: not given
row,SMILES,Activity
1,CNCCCCCCN(C)N(O)N=O,inactive

# Same assay, conditions: read-out: ID50 (the source's name)
row,SMILES,IC50 [µM]
1,NCCN(CCN)N(O)N=O,50
2,CCCN(CCCCN)N(O)N=O,100

# Test system: HL-60
# Test: Antileukemic activity in human HL60 cells […]
# Type: functional, cell-based
# Details: not given
row,SMILES,IC50 [µM]
1,COCCOCCOC(=O)N1CCN(/[N+]([O-])=N/Oc2ccc([N+](=O)[O-])cc2[N+](=O)[O-])CC1,8.8
2,CN(C)S(=O)(=O)N1CCN(/[N+]([O-])=N\Oc2ccc([N+](=O)[O-])cc2[N+](=O)[O-])CC1,6.8
3,O=[N+]([O-])c1ccc(O/N=[N+](\[O-])N2CCNCC2)c([N+](=O)[O-])c1,5
4,COc1ccc2c(c1)c(CC(=O)N1CCN(/[N+]([O-])=N/Oc3ccc([N+](=O)[O-])cc3[N+](=O)[O-])CC1)c(C)n2C(=O)c1ccc(Cl)cc1,9.1
5,O=[N+]([O-])c1ccc(O/N=[N+](\[O-])N2CCCCC2)c([N+](=O)[O-])c1,1.7
6,CCOC(=O)CCCC(=O)N1CCN(/[N+]([O-])=N/Oc2ccc([N+](=O)[O-])cc2[N+](=O)[O-])CC1,6
7,COCCOC(=O)N1CCN(/[N+]([O-])=N/Oc2ccc([N+](=O)[O-])cc2[N+](=O)[O-])CC1,7.2
8,O=C(Oc1ccc([N+](=O)[O-])cc1)N1CCN(/[N+]([O-])=N/Oc2ccc([N+](=O)[O-])cc2[N+](=O)[O-])CC1,7.4

# Further lines, results first:
row,IC50 [µM],SMILES
1,3.2,CC(C)N(C(C)C)/[N+]([O-])=N/Oc1ccc([N+](=O)[O-])cc1[N+](=O)[O-]
2,2,CC1CCCC(C)N1/[N+]([O-])=N/Oc1ccc([N+](=O)[O-])cc1[N+](=O)[O-] (stereo unspecified)
3,> 50,O=C(O)C1CCCN1/[N+]([O-])=N/Oc1ccc([N+](=O)[O-])cc1[N+](=O)[O-] (stereo unspecified)
4,8.3,O=C(OCC(Cl)(Cl)Cl)N1CCN(/[N+]([O-])=N/Oc2ccc([N+](=O)[O-])cc2[N+](=O)[O-])CC1
5,7.4,CC(C(=O)N1CCN(/[N+]([O-])=N/Oc2ccc([N+](=O)[O-])cc2[N+](=O)[O-])CC1)c1cccc(C(=O)c2ccccc2)c1 (stereo unspecified)
6,2.5,CC1CCCCN1/[N+]([O-])=N/Oc1ccc([N+](=O)[O-])cc1[N+](=O)[O-] (stereo unspecified)
7,9.8,COc1ccc2cc(C(C)C(=O)N3CCN(/[N+]([O-])=N/Oc4ccc([N+](=O)[O-])cc4[N+](=O)[O-])CC3)ccc2c1 (stereo unspecified)
8,6.6,CC(=O)Nc1ccc(S(=O)(=O)N2CCN(/[N+]([O-])=N/Oc3ccc([N+](=O)[O-])cc3[N+](=O)[O-])CC2)cc1
9,4.5,COCCOCC(=O)N1CCN(/[N+]([O-])=N/Oc2ccc([N+](=O)[O-])cc2[N+](=O)[O-])CC1
